Source: patent US20090082203A1, “INSECTICIDAL BIS(SUBSTITUTED PHENYL)-1-{[4-(SATURATED HETEROCYCLYL-SUBSTITUTED)PHENYLMETHYL]- (4-PIPERIDYL)}METHANE DERIVATIVES” (priority 2004, published 2009)

System: tobacco budworm (Heliothis virescens [Fabricius])
Experiment: surface-treated diet test against tobacco budworm
Type: in vivo
Conditions: for Percent Growth Inhibition: inhibition of insect weight relative to untreated controls
Protocol: Candidate insecticides were evaluated for activity against the tobacco budworm (Heliothis virescens [Fabricius]) in a surface-treated diet test.
In this test one mL of molten (65-70° C.) wheat germ-based artificial diet was pipetted into each well of a four by six (24 well) multi-well plate (ID# 430345-15.5 mm dia.×17.6 mm deep; Corning Costar Corp., One Alewife Center, Cambridge, Mass. 02140). The diet was allowed to cool to ambient temperature before treatment with candidate insecticide.
For a determination of insecticidal activity, solutions of the candidate insecticides were prepared for testing using a Packard 204DT Multiprobe® Robotic System (Packard Instrument Company, 800 Research Parkway, Meriden, Conn. 06450), in which the robot first diluted a standard 50 millimolar DMSO solution of candidate insecticide with a 1:1 water/acetone solution (V/V) in a ratio of 1:7 stock solution to water/acetone. The robot subsequently pipetted 40 microliters of the so-prepared solution onto the surface of the diet in each of three wells in the 24 multi-well plate. The process was repeated with solutions of seven other candidate insecticides. Once treated, the contents of the multi-well plate were allowed to dry, leaving 0.25 millimoles of candidate insecticide on the surface of the diet, or a concentration of 0.25 millimolar. Appropriate untreated controls containing only DMSO on the diet surface were also included in this test.
For evaluations of the insecticidal activity of a candidate insecticide at varying rates of application, the test was established as described above using sub-multiples of the standard 50 millimolar DMSO solution of candidate insecticide. For example, the standard 50 millimolar solution was diluted by the robot with DMSO to give 5, 0.5, 0.05, 0.005, 0.0005 millimolar, or more dilute solutions of the candidate insecticide. In these evaluations there were six replicates of each rate of application placed on the surface of the diet in the 24 multi-well plate, for a total of four rates of application of candidate insecticide in each plate.
In each well of the test plate was placed one second instar tobacco budworm larvae, each weighing approximately five milligrams. After the larvae were placed in each well, the plate was sealed with clear polyfilm adhesive tape. The tape over each well was perforated to ensure an adequate air supply. The plates were then held in a growth chamber at 25° C. and 60% relative humidity for five days (light 14 hours/day).
After the five-day exposure period insecticidal activity for each rate of application of candidate insecticide was assessed as percent inhibition of insect weight relative to the weight of insects from untreated controls, and percent mortality when compared to the total number of insects infested.
The test compounds of formula I are identified by numbers that correspond to those in Table 1.

[1] = 0.25 millimolar on the surface of the diet, second instar larvae, five-day exposure, compared to the total number of insects infested
[2] = 0.25 millimolar on the surface of the diet, second instar larvae, five-day exposure

## [O-][N+]1(Cc2ccc(C3(c4ccoc4)OCCO3)cc2)CCC(C(O)(c2ccc(OC(F)(F)F)cc2)c2ccc(OC(F)(F)F)cc2)CC1 (stereo not shown) [Compound 101]
[1]
  Percent Mortality: 100%
[2]
  Percent Growth Inhibition: 100%

## CC1CC(C)(C)OC(c2ccc(CN3CCC(C(O)(c4ccc(OC(F)(F)F)cc4)c4ccc(OC(F)(F)F)cc4)CC3)cc2)O1 (stereo not shown) [Compound 78]
[1]
  Percent Mortality: 100%
[2]
  Percent Growth Inhibition: 100%

## CC1CC(C)(C)OC(c2ccc(C[N+]3([O-])CCC(C(O)(c4ccc(OC(F)(F)F)cc4)c4ccc(OC(F)(F)F)cc4)CC3)cc2)O1 (stereo not shown) [Compound 80]
[1]
  Percent Mortality: 100%
[2]
  Percent Growth Inhibition: 100%

## COCC1COC(c2ccc(C[N+]3([O-])CCC(C(O)(c4ccc(OC(F)(F)F)cc4)c4ccc(OC(F)(F)F)cc4)CC3)cc2)O1 (stereo not shown) [Compound 61]
[1]
  Percent Mortality: 100%
[2]
  Percent Growth Inhibition: 100%

## [O-][N+]1(Cc2ccc(C3OCC(c4ccccc4)O3)cc2)CCC(C(O)(c2ccc(OC(F)(F)F)cc2)c2ccc(OC(F)(F)F)cc2)CC1 (stereo not shown) [Compound 60]
[1]
  Percent Mortality: 100%
[2]
  Percent Growth Inhibition: 100%

## OC(c1ccc(OC(F)(F)F)cc1)(c1ccc(OC(F)(F)F)cc1)C1CCN(Cc2ccc(C3O[C@H]4CCC[C@H]4O3)cc2)CC1 (stereo partly shown) [Compound 119]
[1]
  Percent Mortality: 100%
[2]
  Percent Growth Inhibition: 100%

## CC(C)N1CCOC1c1ccc(CN2CCC(C(O)(c3ccc(OC(F)(F)F)cc3)c3ccc(OC(F)(F)F)cc3)CC2)cc1 (stereo not shown) [Compound 97]
[1]
  Percent Mortality: 50%
[2]
  Percent Growth Inhibition: 100%

## C=CCOCC1COC(c2ccc(C[N+]3([O-])CCC(C(O)(c4ccc(OC(F)(F)F)cc4)c4ccc(OC(F)(F)F)cc4)CC3)cc2)O1 (stereo not shown) [Compound 93]
[1]
  Percent Mortality: 100%
[2]
  Percent Growth Inhibition: 100%

## COCC1COC(COc2ccc(CN3CCC(C(O)(c4ccc(OC(F)(F)F)cc4)c4ccc(OC(F)(F)F)cc4)CC3)cc2)O1 (stereo not shown) [Compound 195]
[1]
  Percent Mortality: 100%
[2]
  Percent Growth Inhibition: 100%

## CCC1COC(c2ccc(CN3CCC(C(O)(c4ccc(OC(F)(F)F)cc4)c4ccc(OC(F)(F)F)cc4)CC3)cc2)O1 (stereo not shown) [Compound 48]
[1]
  Percent Mortality: 100%
[2]
  Percent Growth Inhibition: 100%

## CCCCN1CCOC1c1ccc(CN2CCC(C(O)(c3ccc(OC(F)(F)F)cc3)c3ccc(OC(F)(F)F)cc3)CC2)cc1 (stereo not shown) [Compound 98]
[1]
  Percent Mortality: 100%
[2]
  Percent Growth Inhibition: 100%

## [O-][N+]1(Cc2ccc(C3OCCCO3)cc2)CCC(C(O)(c2ccc(OC(F)(F)F)cc2)c2ccc(OC(F)(F)F)cc2)CC1 (stereo not shown) [Compound 5]
[1]
  Percent Mortality: 100%
[2]
  Percent Growth Inhibition: 100%

## [O-][N+]1(Cc2ccc(C3OCCO3)cc2)CCC(C(O)(c2ccc(OC(F)(F)F)cc2)c2ccc(OC(F)(F)F)cc2)CC1 (stereo not shown) [Compound 2]
[2]
  Percent Growth Inhibition: 100%
In vivo
  Percent Mortality: 100%

## OC(c1ccc(OC(F)(F)F)cc1)(c1ccc(OC(F)(F)F)cc1)C1CCN(Cc2ccc(C3OCC=CCO3)cc2)CC1 [Compound 58]
[1]
  Percent Mortality: 100%
[2]
  Percent Growth Inhibition: 100%

## CC1(C)OCC(COc2ccc(CN3CCC(C(O)(c4ccc(OC(F)(F)F)cc4)c4ccc(OC(F)(F)F)cc4)CC3)cc2)O1 (stereo not shown) [Compound 189, bis[4-(trifluoromethoxy)-phenyl][1-({4-[(2,2-dimethyl(1,3-dioxolan-4-yl))methoxy]phenyl}methyl)(4-piperidyl)]methan-1-ol]
[1]
  Percent Mortality: 100%
[2]
  Percent Growth Inhibition: 100%

## C=CC1COC(c2ccc(CN3CCC(C(O)(c4ccc(OC(F)(F)F)cc4)c4ccc(OC(F)(F)F)cc4)CC3)cc2)O1 (stereo not shown) [Compound 52]
[1]
  Percent Mortality: 100%
[2]
  Percent Growth Inhibition: 100%

## [O-][N+]1(Cc2ccc(C3OCCO3)c(C(F)(F)F)c2)CCC(C(O)(c2ccc(OC(F)(F)F)cc2)c2ccc(OC(F)(F)F)cc2)CC1 (stereo not shown) [Compound 182]
[1]
  Percent Mortality: 100%
[2]
  Percent Growth Inhibition: 100%

## COC(=O)N1CCSC1c1ccc(CN2CCC(C(O)(c3ccc(OC(F)(F)F)cc3)c3ccc(OC(F)(F)F)cc3)CC2)cc1 (stereo not shown) [Compound 89]
[1]
  Percent Mortality: 100%
[2]
  Percent Growth Inhibition: 100%

## CC1COC(c2ccc(C[N+]3([O-])CCC(C(O)(c4ccc(Cl)c(Cl)c4)c4ccc(Cl)c(Cl)c4)CC3)cc2)O1 (stereo not shown) [Compound 177]
[1]
  Percent Mortality: 100%
[2]
  Percent Growth Inhibition: 100%

## OC(c1ccc(OC(F)(F)F)cc1)(c1ccc(OC(F)(F)F)cc1)C1CCN(Cc2ccc(C3COCO3)cc2)CC1 (stereo not shown) [Compound 103]
[1]
  Percent Mortality: 100%
[2]
  Percent Growth Inhibition: 100%

## [O-][N+]1(Cc2ccc(C3OCCCCO3)cc2)CCC(C(O)(c2ccc(OC(F)(F)F)cc2)c2ccc(OC(F)(F)F)cc2)CC1 (stereo not shown) [Compound 7]
[1]
  Percent Mortality: 100%
[2]
  Percent Growth Inhibition: 100%

## CC1CCOC(c2ccc(C[N+]3([O-])CCC(C(O)(c4ccc(OC(F)(F)F)cc4)c4ccc(OC(F)(F)F)cc4)CC3)cc2)O1 (stereo not shown) [Compound 68]
[1]
  Percent Mortality: 100%
[2]
  Percent Growth Inhibition: 100%

## OC(c1ccc(OC(F)(F)F)cc1)(c1ccc(OC(F)(F)F)cc1)C1CCN(Cc2ccc(C3OCCO3)cc2)CC1 [Compound 1]
[2]
  Percent Growth Inhibition: 100%
In vivo
  Percent Mortality: 100%

## [O-][N+]1(Cc2ccc(C3(c4ccc(Cl)nc4)OCCO3)cc2)CCC(C(O)(c2ccc(OC(F)(F)F)cc2)c2ccc(OC(F)(F)F)cc2)CC1 (stereo not shown) [Compound 87]
[1]
  Percent Mortality: 17%
[2]
  Percent Growth Inhibition: 79%

## OC(c1ccc(OC(F)(F)F)cc1)(c1ccc(OC(F)(F)F)cc1)C1CCN(Cc2ccc(C3O[C@H]4COC[C@H]4O3)cc2)CC1 (stereo partly shown) [Compound 116]
[1]
  Percent Mortality: 100%
[2]
  Percent Growth Inhibition: 100%

## OC(c1ccc(OC(F)(F)F)cc1)(c1ccc(OC(F)(F)F)cc1)C1CCN(Cc2ccc(C3(c4ccoc4)OCCO3)cc2)CC1 [Compound 99]
[1]
  Percent Mortality: 100%
[2]
  Percent Growth Inhibition: 100%

## OC(c1ccc(OC(F)(F)F)cc1)(c1ccc(OC(F)(F)F)cc1)C1CCN(Cc2ccc(C3OCCC(c4ccccc4)O3)cc2)CC1 (stereo not shown) [Compound 55]
[1]
  Percent Mortality: 100%
[2]
  Percent Growth Inhibition: 100%

## C[C@H]1OC(c2ccc(C[N+]3([O-])CCC(C(O)(c4ccc(OC(F)(F)F)cc4)c4ccc(OC(F)(F)F)cc4)CC3)cc2)O[C@@H]1C (relative stereo) [Compound 124]
[1]
  Percent Mortality: 100%
[2]
  Percent Growth Inhibition: 100%

## OC(c1ccc(OC(F)(F)F)cc1)(c1ccc(OC(F)(F)F)cc1)C1CCN(Cc2ccc(OCC3OCCO3)cc2)CC1 [Compound 187]
[1]
  Percent Mortality: 100%
[2]
  Percent Growth Inhibition: 100%

## COc1ccc(C2(COc3ccc(C[N+]4([O-])CCC(C(O)(c5ccc(OC(F)(F)F)cc5)c5ccc(OC(F)(F)F)cc5)CC4)cc3)OCCO2)cc1 (stereo not shown) [Compound 191]
[1]
  Percent Mortality: 100%
[2]
  Percent Growth Inhibition: 100%

## OC(c1ccc(OC(F)(F)F)cc1)(c1ccc(OC(F)(F)F)cc1)C1CCN(Cc2ccc(C3OCCCO3)cc2)CC1 [Compound 4]
[1]
  Percent Mortality: 100%
[2]
  Percent Growth Inhibition: 100%

## CC1COC(COc2ccc(C[N+]3([O-])CCC(C(O)(c4ccc(OC(F)(F)F)cc4)c4ccc(OC(F)(F)F)cc4)CC3)cc2)O1 (stereo not shown) [Compound 194]
[1]
  Percent Mortality: 100%
[2]
  Percent Growth Inhibition: 100%

## OC(c1ccc(OC(F)(F)F)cc1)(c1ccc(OC(F)(F)F)cc1)C1CCN(Cc2ccc(C3OCC(CN4CCCC4)O3)cc2)CC1 (stereo not shown) [Compound 108]
[1]
  Percent Mortality: 33%
[2]
  Percent Growth Inhibition: 97%

## Cc1cc(CN2CCC(C(O)(c3ccc(OC(F)(F)F)cc3)c3ccc(OC(F)(F)F)cc3)CC2)ccc1C1OCCO1 [Compound 169]
[2]
  Percent Growth Inhibition: 100%
In vivo
  Percent Mortality: 100%

## COCC1COC(c2ccc(CN3CCC(C(O)(c4ccc(OC(F)(F)F)cc4)c4ccc(OC(F)(F)F)cc4)CC3)cc2)O1 (stereo not shown) [Compound 51]
[1]
  Percent Mortality: 100%
[2]
  Percent Growth Inhibition: 100%

## CC1COC(c2ccc(CN3CCC(C(O)(c4ccc(OC(F)(F)F)cc4)c4ccc(OC(F)(F)F)cc4)CC3)cc2F)O1 (stereo not shown) [Compound 179]
[1]
  Percent Mortality: 100%
[2]
  Percent Growth Inhibition: 100%

## OC(c1ccc(OC(F)(F)F)cc1)(c1ccc(OC(F)(F)F)cc1)C1CCN(Cc2ccc(C3(c4ccccc4)OCCO3)cc2)CC1 [Compound 57]
[1]
  Percent Mortality: 100%
[2]
  Percent Growth Inhibition: 100%

## OC(c1ccc(OC(F)(F)F)cc1)(c1ccc(OC(F)(F)F)cc1)C1CCN(Cc2ccc(C3OCC(COc4ccccc4)O3)cc2)CC1 (stereo not shown) [Compound 92]
[1]
  Percent Mortality: 100%
[2]
  Percent Growth Inhibition: 100%
